Broadly, the EC50 is the concentration giving half of the maximal effect. As a reminder, the IC50 is the concentration that gives 50% inhibition. Read a low IC50 as greater potency.

Read-outs that look alike come from different tables or passages of the source.

Our source for the EC50 and IC50 values is patent US12410160B2 (Gilead Sciences, Inc., priority 2021, dated 2025).

Assay [1] concerns the target KHK-C expressed in NRK-52E cells (Homo sapiens (Human), UniProt P50053). As to the kind of experiment: KHK-C Cell-based Assay (EC50), NRK CTG, fructose-mediated ATP-depletion.
The next assay deals with HepG2 cells. As to the kind of experiment: F1P Cell-Based Assay (EC50), 13C6-fructose-1-phosphate in HepG2 cells (cell culture medium or 50% human plasma).
In a further assay the target is human KHK-C (Homo sapiens (Human), UniProt P50053). As to the kind of experiment: KHK Biochemical Assay (IC50), ADP-Glo, KHK-C. Particulars: average of at least two separate assays. The essentials:
(§1)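 His-tagged enzyme expressed in BL21 (DE3), Ni-NTA purified. Compounds, serially diluted 1:3 in DMSO, pre-incubated 30 min with enzyme in 50 mM Hepes pH 7.4, 140 mM KCl, 5 mM MgCl2, 0.01% Triton-X, then ATP and fructose added; 4 h at room temperature. ADP formation read by ADP-Glo luminescence.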
In general terms: In ADP-Glo the light output rises with the ADP produced.

For the next assay, the target named is human KHK-A (Homo sapiens (Human), UniProt P50053). As to the kind of experiment: KHK Biochemical Assay (IC50), ADP-Glo, KHK-A. The note with it: ADP-Glo; average of at least two separate assays. The essentials:
as §1

Setting [2] is: Homo sapiens, HepG2, HepG2 cells, 50% human plasma, read-out: F1P 50% HP EC50.
Where [3] appears, read: Homo sapiens, HepG2, read-out: F1P 10% FBS EC50, HepG2 cells, cell culture medium (10% FBS).

Sequence of human KHK-A (P50053 other isoform, or with tags, fused parts or gaps): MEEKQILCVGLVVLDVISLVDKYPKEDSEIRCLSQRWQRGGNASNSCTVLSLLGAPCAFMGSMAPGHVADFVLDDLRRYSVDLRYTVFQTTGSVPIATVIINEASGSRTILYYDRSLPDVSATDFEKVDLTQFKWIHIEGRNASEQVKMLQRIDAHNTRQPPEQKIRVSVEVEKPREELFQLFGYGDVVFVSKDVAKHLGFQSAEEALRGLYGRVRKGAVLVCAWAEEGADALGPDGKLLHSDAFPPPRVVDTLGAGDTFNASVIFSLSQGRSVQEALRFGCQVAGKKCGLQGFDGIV
Sequence of KHK-C expressed in NRK-52E cells (P50053 whole entry): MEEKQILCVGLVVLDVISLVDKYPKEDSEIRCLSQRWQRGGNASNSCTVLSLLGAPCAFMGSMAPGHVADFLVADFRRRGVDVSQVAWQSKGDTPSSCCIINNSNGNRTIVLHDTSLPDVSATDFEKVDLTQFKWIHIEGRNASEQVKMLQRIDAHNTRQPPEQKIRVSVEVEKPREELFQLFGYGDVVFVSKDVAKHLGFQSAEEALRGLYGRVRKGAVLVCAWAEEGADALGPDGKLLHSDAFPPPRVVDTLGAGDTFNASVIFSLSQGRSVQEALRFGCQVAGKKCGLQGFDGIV
Sequence of human KHK-C (P50053 whole entry): as above

Regarding `C[C@H]1[C@H](O)CN1c1nc(-c2ccc3c(c2)O[C@@H](CO)CNC3=O)c2c(n1)C(F)(F)CC2` [Example 808, (R)-8-(7,7-difluoro-2-((2S,3R)-3-hydroxy-2-methylazetidin-1-yl)-6,7-dihydro-5H-cyclopenta[d]pyrimidin-4-yl)-2-(hydroxymethyl)-3,4-dihydrobenzo[f][1,4]oxazepin-5(2H)-one], the EC50 worked out at 0.696 µM in assay [1], 0.0418 µM in the assay with HepG2 cells (setting [2]) and 0.0386 µM with HepG2 cells (setting [3]). On human KHK-C (ADP-Glo), this compound returned an IC50 of 0.0063 µM.
`C[C@H]1CCN1c1nc2c(c(-c3ccc(C4(O)CS(=O)(=O)C4)cc3)n1)CCC2` [Example 451, (S)-3-hydroxy-3-(4-(2-(2-methylazetidin-1-yl)-6,7-dihydro-5H-cyclopenta[d]pyrimidin-4-yl)phenyl)thietane 1,1-dioxide]: the values for the half-maximal effective concentration (EC50) (in assay [1]; in the assay on HepG2 cells (setting [2]); with HepG2 cells (setting [3])) were 0.0087 µM, 0.333 µM and 0.0776 µM, respectively. At human KHK-C, this compound registered an IC50 of 0.0141 µM.
On to `C[C@H]1[C@H](O)CN1c1nc(-c2ccc3c(c2)[S@@](=N)(=O)CCO3)c2c(n1)C(F)(F)CC2` (single isomer, unassigned) [Example 821], for which the EC50 in assay [1] (read-out: NRK CTG EC50, NRK-52E cells, Cell-Titer Glo, 25 mM fructose, 48 hours) came out at 0.0422 µM; in the assay with HepG2 cells (HepG2 cells, 50% human plasma, read-out: F1P 50% HP EC50) it was 0.0754 µM; in the assay on HepG2 cells (read-out: F1P 10% FBS EC50, HepG2 cells, cell culture medium (10% FBS)) it was 0.02 µM. On human KHK-C (ADP-Glo), the IC50 stood at 0.005 µM.
Take `C[C@H]1[C@H](O)CN1c1nc(-c2ccc3c(c2)OCCC3NS(C)(=O)=O)c2c(n1)C(F)(F)CC2` (stereo partly drawn) [Example 757, N-[7-[7,7-difluoro-2-[(2S,3R)-3-hydroxy-2-methyl-azetidin-1-yl]-5,6-dihydrocyclopenta[d]pyrimidin-4-yl]chroman-4-yl]methanesulfonamide]: the EC50 was 0.0324 µM in assay [1], 0.0597 µM in the assay on HepG2 cells (setting [2]) and 0.0206 µM in the assay on HepG2 cells (setting [3]). Besides, the IC50 on human KHK-C was 0.0026 µM.
Turning to `COc1ccc(-c2nc(N3CC[C@@H]3C(F)(F)F)nc3c2CCC3(F)F)cc1[S@@](C)(=N)=O` [Example 825, (S)-(5-(7,7-difluoro-2-((R)-2-(trifluoromethyl)azetidin-1-yl)-6,7-dihydro-5H-cyclopenta[d]pyrimidin-4-yl)-2-methoxyphenyl)(imino)(methyl)-λ^6-sulfanone], the EC50 in assay [1] worked out at 0.0056 µM; in the assay with HepG2 cells (setting [2]) it was 0.0023 µM; in the assay with HepG2 cells (setting [3]), 0.0009 µM.
In turn, `C[C@H]1CCN1c1nc2c(c(-c3cccc(S(=O)(=O)NCC(=O)O)c3)n1)CCC2` [Example 74, (S)-((3-(2-(2-methylazetidin-1-yl)-6,7-dihydro-5H-cyclopenta[d]pyrimidin-4-yl)phenyl)sulfonyl)glycine] came in with an EC50 in assay [1] of 0.859 µM. The IC50 on human KHK-A turned out to be 0.0229 µM; at human KHK-C (ADP-Glo), 0.0263 µM.
The matching figures for `C[C@H]1CCN1c1nc2c(c(-c3ccc4[nH]c(=O)n(C)c4c3)n1)CCC2` [Example 251, 3-methyl-5-[2-[(2S)-2-methylazetidin-1-yl]-6,7-dihydro-5H-cyclopenta[d]pyrimidin-4-yl]-1H-benzimidazol-2-one]: 0.243 µM, 0.126 µM and 0.135 µM.
In assay [1], `C[C@H]1CCN1c1nc2c(c(-c3ccc4nc(N)ccc4c3)n1)CCC2` [Example 143, (S)-6-(2-(2-methylazetidin-1-yl)-6,7-dihydro-5H-cyclopenta[d]pyrimidin-4-yl)quinolin-2-amine] came in with an EC50 of 0.0433 µM. Also, the IC50 on human KHK-A worked out at 0.0214 µM; at human KHK-C (ADP-Glo), 0.0306 µM.
`C[C@H]1CCN1c1nc2c(c(-c3ccc4c(c3)CC(CC(N)=O)C4)n1)CCC2` (stereo partly drawn) [Example 135, 2-(5-(2-((S)-2-methylazetidin-1-yl)-6,7-dihydro-5H-cyclopenta[d]pyrimidin-4-yl)-2,3-dihydro-1H-inden-2-yl)acetamide]: the half-maximal effective concentration (EC50) in assay [1] stood at 0.277 µM. The IC50 turned out to be 0.126 µM against human KHK-A and 0.111 µM on human KHK-C (ADP-Glo).
The matching figures for `C[C@H]1[C@H](F)CN1c1nc2c(c(-c3ccc4c(c3)CCNC4=O)n1)CCC2` [Example 289]: 0.0345 µM, 0.0579 µM and 0.0175 µM.
`C[C@H]1CCN1c1nc(-c2ccc(C(N)=O)cc2)c2c(n1)C(F)(F)CCC2` [Example 157, (S)-4-(8,8-difluoro-2-(2-methylazetidin-1-yl)-5,6,7,8-tetrahydroquinazolin-4-yl)benzamide] yielded a 50% effective concentration (EC50) in assay [1] of 0.291 µM. The IC50 amounted to 0.125 µM on human KHK-A and 0.211 µM against human KHK-C (ADP-Glo).
The like results for `C[C@H]1CCN1c1nc2c(c(-c3ccc(C(O)CF)cc3)n1)CCC2` (stereo partly drawn) [Example 257, 2-fluoro-1-[4-[2-[(2S)-2-methylazetidin-1-yl]-6,7-dihydro-5H-cyclopenta[d]pyrimidin-4-yl]phenyl]ethanol] were, in that order, 0.185 µM, 0.201 µM and 0.129 µM.
`C[C@H]1[C@@H](F)CN1c1nc2c(c(-c3ccc(C(N)=O)cc3)n1)CCC2` [Example 226]: in assay [1], the 50% effective concentration (EC50) amounted to 0.0269 µM. Further, the IC50 on human KHK-A turned out to be 0.0255 µM; against human KHK-C (ADP-Glo) it was 0.0172 µM.
The matching figures for `C[C@H]1CCN1c1nc2c(c(-c3ccc4c(c3)S(=O)(=O)NC4=O)n1)CCC2` [Example 86, (S)-6-(2-(2-methylazetidin-1-yl)-6,7-dihydro-5H-cyclopenta[d]pyrimidin-4-yl)benzo[d]isothiazol-3(2H)-one 1,1-dioxide]: more than 5 µM, 0.0502 µM and 0.0386 µM.
The like results for `C[C@H]1CCN1c1nc2c(c(-c3ccc(C(N)C(F)(F)F)cc3)n1)CCC2` (stereo in doubt) [Example 269, 2,2,2-trifluoro-1-[4-[2-[(2S)-2-methylazetidin-1-yl]-6,7-dihydro-5H-cyclopenta[d]pyrimidin-4-yl]phenyl]ethanamine] were, in that order, more than 5 µM, more than 5 µM and more than 5 µM.
In turn, `C[C@H]1CCN1c1nc2c(c(-c3ccc(C(=O)NCCO)cc3)n1)CCC2` [Example 91, (S)—N-(2-hydroxyethyl)-4-(2-(2-methylazetidin-1-yl)-6,7-dihydro-5H-cyclopenta[d]pyrimidin-4-yl)benzamide] gave an EC50 in assay [1] of 0.12 µM. Moreover, the concentration for half-maximal inhibition (IC50) against human KHK-A was 0.0452 µM; against human KHK-C (ADP-Glo) it was 0.0556 µM.
`Cc1ncc(-c2nc(N3CC[C@@H]3C)nc3c2CCC3)s1` [Example 34, (S)-2-methyl-5-(2-(2-methylazetidin-1-yl)-6,7-dihydro-5H-cyclopenta[d]pyrimidin-4-yl)thiazole]: in assay [1], the EC50 is 0.142 µM. Besides, the concentration for half-maximal inhibition (IC50) was determined as 0.0527 µM against human KHK-A and 0.0645 µM on human KHK-C (ADP-Glo).
The like results for `C[C@H]1[C@H](O)CN1c1nc(-c2ccc(C(N)=O)cc2)c2c(n1)C(F)(F)CCC2` [Example 158] were, in that order, 1.12 µM, 0.217 µM and 0.314 µM.
The matching figures for `C[C@H]1[C@H](F)CN1c1nc2c(c(-c3ccc(C(N)=O)cc3)n1)CCC2` [Example 200, 4-[2-[(2S,3R)-3-fluoro-2-methyl-azetidin-1-yl]-6,7-dihydro-5H-cyclopenta[d]pyrimidin-4-yl]benzamide]: 0.0493 µM, 0.0149 µM and 0.0109 µM.
The matching figures for `C[C@H]1[C@H](O)CN1c1nc2c(c(-c3ccc(C(N)=O)c(Cl)c3)n1)CCC2` [Example 308]: 0.294 µM, 0.13 µM and 0.0975 µM.
`C[C@H]1[C@H](O)CN1c1nc(-c2ccc3c(c2)COCC32CCC(=O)N2)c2c(n1)C(F)(F)CC2` (stereo partly shown) [Example 639]: the EC50 in assay [1] was 0.035 µM; in the assay on HepG2 cells (setting [2]), 0.19 µM; with HepG2 cells (setting [3]) it was 0.0663 µM.
